Assay results published in patent US5116863A, “Dibenz[b,e]oxepin derivative and pharmaceutical compositions thereof” (Kyowa Hakko Kogyo Co., Ltd., priority 1986, dated 1992).
Where two headings read alike, the source gives them in different places.

Columns and labels:
Rat carageenin paw edema = experiment: Carageenin paw edema test (antiinflammatory activity); format: in vivo, Wistar male rats; conditions: average value in one group of 3 rats, 100 mg/kg oral administration
Description: Antiinflammatory activity was examined according to Rat carageenin paw edema [J. Pathol. 104, 15-29 (1971)], Groups each consisting of three Wistar male rats weighing 150 g were used. The test compound was suspended in 0.3% aqueous CMC solution and the suspension was given orally. Sixty minutes later, 0.1 ml of 0.1% carageenin was subcutaneously injected in a hind paw to form carageenin paw edema.
The volume of paw was measured before the administration and 3 hours after the administration of carageenin with plethysmometer.
The ratio of the volume 3 hours after the administration to that before the administration of carageenin was calculated and each ratio is compared with the ratio of control group (0.3% CMC was administered) to give the edema inhibiting percentage.

[1] = tested on: homologous PCA (passive cutaneous anaphlaxis) of rats; experiment: Homologous PCA (passive cutaneous anaphylaxis) test of rats for 48 hours, oral (antiallergic activity); format: in vivo, Wistar male rats; conditions: for minimal effective dose / responders at 0.001 mg/kg / responders at 0.01 mg/kg / responders at 0.1 mg/kg / responders at 1 mg/kg / responders at 10 mg/kg / responders at 100 mg/kg: Rattus norvegicus; for minimal effective dose: read-out: MED (minimum effective dosage), PCA inhibition; for responders at 0.001 mg/kg / responders at 0.01 mg/kg / responders at 0.1 mg/kg / responders at 1 mg/kg / responders at 10 mg/kg / responders at 100 mg/kg: po; for responders at 0.001 mg/kg: dosage 0.001 mg/kg, read-out: Number of positive zooids in one group of 3 zooids; for responders at 0.001 mg/kg / responders at 0.01 mg/kg / responders at 0.1 mg/kg / responders at 1 mg/kg / responders at 10 mg/kg / responders at 100 mg/kg / Number of positive zooids in one group of 3 zooids: positive = inhibition rate 50% or higher; for responders at 0.01 mg/kg / responders at 0.1 mg/kg / responders at 1 mg/kg / responders at 10 mg/kg / responders at 100 mg/kg: read-out: Number of positive zooids in one group of 3 zooids (converted)
Description: Antiallergic activity was investigated by a homologous PCA (passive cutaneous anaphlaxis) of rats for 48 hours, where Wistar male rats having body weights of 180 to 220 g were used for sampling of antiserum and Wistar male rats having body weights of 120 to 140 g were used for the PCA test.
Anti-egg white albumin (EWA) rat serum was prepared according to Stotland and Share's method [Canad. J. Physiol. Pharmacol. 52, 1114 (1974)]. That is, 1 mg of EWA was mixed with 20 mg of aluminum hydroxide gel and 0.5 ml of mixed vaccine of pertussis, diphtheria and tetanus, and the mixture was subcutaneously administered in four portions into rat's footpad. After 14 days, blood was sampled from the carotid artery, and the serum was separated from the sampled blood, and preserved under freezing at -80° C. The potency of the antiserumin in the homologous PCA for 48 hours was 1:32.
Groups each consisting of 3 rats were used, and 0.05 ml of anti-EWA rat serum diluted with a physiological saline solution to 8 times as much was incutaneously injected each at two positions of depilated back to make the animals passively sensitised. After 47 hours, the compound of the present invention, or its solution (physiological saline solution or CMC solution) was orally administered. One hour thereafter, 0.5 ml/100 g of 1% Evan's blue physiological saline solution containing 2 mg of the antigen EWA was administered into the tail vein, and 30 minutes thereafter, the animals were sacrificed by exsanguination. Then, the skins were stripped and the amount of leaked pigment at the blue-dyed parts was measured according to the Katayama et al method [Microbiol. Immunol. 22, 89 (1978)]. That is, the blue-dyed parts were cut out by scissors, and placed in test tubes containing 1 ml of 1N KOH and incubated at 37° C. for 24 hours. Then, 9 ml of a mixture of 0.6N phosphoric acid and acetone (5:13) was added thereto, and the mixture was shaked and centrifuged at 2,500 rpm for 10 minutes. Absorbancy of the supernatant at […] was measured, and the amount of leaked pigment was quantitatively determined by the calibration curve prepared in advance. An average of measurements at the two position was made a value for one zooid, and inhibition rate for the individual zooid was calculated by the following formula: [formula]

dd, male mice = format: in vivo
Description: Groups each consisting of 3 dd, male mice having body weights of 20±1 g were used, and the compound of the present invention was administered orally (po: 300 mg/kg) or intraperitoneally (ip: 100 mg/kg).

[2] = minimum dosage with positive case in at least one of three rats
[3] = mice, mortality 7 days after administration

| Compound | Carageenin paw edema inhibiting percentage (Rat carageenin paw edema) | minimal effective dose [1, 2] | responders at 0.001 mg/kg [1] | responders at 0.01 mg/kg ([1]; dosage 0.01 mg/kg) | responders at 0.1 mg/kg ([1]; dosage 0.1 mg/kg) | responders at 1 mg/kg ([1]; dosage 1 mg/kg) | responders at 10 mg/kg ([1]; dosage 10 mg/kg) | Acute toxicity (MLD), ip (dd, male mice; [3]) | Acute toxicity (MLD), po (dd, male mice; [3]) | responders at 100 mg/kg ([1]; dosage 100 mg/kg) | Acute toxicity (MLD), ip (dd, male mice; mouse, in vivo, 10080 min) | Acute toxicity (MLD), po (dd, male mice; mouse, in vivo, 10080 min) | Number of positive zooids in one group of 3 zooids ([1]; dosage 0.01 mg/kg) | Number of positive zooids in one group of 3 zooids ([1]; dosage 0.1 mg/kg) | Number of positive zooids in one group of 3 zooids ([1]; dosage 1 mg/kg) | Number of positive zooids in one group of 3 zooids ([1]; dosage 10 mg/kg) | Number of positive zooids in one group of 3 zooids ([1]; dosage 100 mg/kg) | MED (minimum effective dosage), PCA inhibition [1, 2] |
| --- | --- | --- | --- | --- | --- | --- | --- | --- | --- | --- | --- | --- | --- | --- | --- | --- | --- | --- |
| CN(C)CCCN=C1c2ccccc2COc2cc(CC(=O)O)ccc21 [Compound 49, 11-(3-Dimethylaminopropyl)imino-6,11-dihydrodibenz[b,e]oxepin-3-acetic acid] | 24.1% |  |  |  |  |  |  |  |  |  |  |  |  |  |  |  |  |  |
| CN(C)CC/C=C1/c2ccccc2COc2ccc(CCO)cc21 [Compound 31 (cis), Cis-11-(3-dimethylaminopropylidene)-2-(2-hydroxyethyl)-6,11-dihydrodibenz[b,e]oxepin] |  | 0.1 mg/kg | 0% | 0% | 66.7% | 100% | 100% | > 100 mg/kg | 300 mg/kg |  |  |  |  |  |  |  |  |  |
| CN(C)CC/C=C1/c2ccccc2COc2ccc(C(=O)O)cc21 [Compound 3 (cis), Cis-11-(3-dimethylaminopropylidene)-6,11-dihydrodibenz[b,e]oxepin-2-carboxylic acid] |  | 0.1 mg/kg |  | 0% | 100% | 100% | 100% | > 100 mg/kg | > 300 mg/kg | 100% |  |  |  |  |  |  |  |  |
| CCN(CC)CC/C=C1/c2ccccc2COc2ccc(C(=O)O)cc21 [Compound 5, 11-(3-Diethylaminopropylidene)-6,11-dihydrodibenz[b,e]oxepin-2-carboxylic acid] |  | 1 mg/kg |  | 0% |  | 100% | 100% |  |  | 100% | > 100 mg/kg | > 300 mg/kg |  |  |  |  |  |  |
| CN(C)CCN=C1c2ccccc2COc2cc(CC(=O)O)ccc21 [Compound 47, 11-(2-Dimethylaminoethyl)imino-6,11-dihydrodibenz[b,e]oxepin-3-acetic acid] | 46.0% |  |  |  |  |  |  |  |  |  |  |  |  |  |  |  |  |  |
| CN(C)CC/C=C1/c2ccccc2COc2ccc(/C=C/C(=O)O)cc21 [Compound 60, Trans-3-[11-(3-dimethylaminopropylidene)-6,11-dihydrodibenz[b,e]oxepin-2-yl]-acrylic acid] |  | 0.1 mg/kg |  | 0% | 33.3% | 66.7% | 100% | > 100 mg/kg | > 300 mg/kg | 100% |  |  |  |  |  |  |  |  |
| CN(C)CC/C=C1/c2ccccc2COc2ccc(CC(=O)O)cc21 [Compound 20 (cis), Cis-11-(3-dimethylaminopropylidene)-6,11-dihydrodibenz[b,e]oxepin-2-acetic acid] |  | 0.01 mg/kg | 0% | 33.3% | 100% | 100% | 100% | > 100 mg/kg | > 300 mg/kg | 100% |  |  |  |  |  |  |  |  |
| CN(C)CCC=C1c2ccccc2COc2ccc(CCC(=O)O)cc21 [Compound 28, 3-[11-(3-Dimethylaminopropylidene)-6,11-dihydrodibenz[b,e]oxepin-2-yl]-propionic acid] |  | 0.01 mg/kg | 0% | 66.7% | 66.7% | 100% | 100% | > 100 mg/kg | > 300 mg/kg | 100% |  |  |  |  |  |  |  |  |
| CN1CCN(CC=C2c3ccccc3COc3ccc(CC(=O)O)cc32)CC1 [Compound 26, 11-[2-(4-Methylpiperazino)ethylidene]-6,11-dihydrodibenz[b,e]oxepin-2-acetic acid] |  | 1 mg/kg |  |  | 0% | 66.7% | 100% | > 100 mg/kg | > 300 mg/kg | 100% |  |  |  |  |  |  |  |  |
| CCN(CC)CCN=C1c2ccccc2COc2ccc(CCC(=O)O)cc21 [Compound 43, 3-[11-(2-Diethylaminoethyl)imino-6,11-dihydrodibenz[b,e]oxepin-2-yl]-propionic acid] |  | 10 mg/kg |  |  | 0% | 0% | 66.7% | > 100 mg/kg | > 300 mg/kg | 100% |  |  |  |  |  |  |  |  |
| CN(C)CC/C=C1\c2ccccc2COc2ccc(CC(=O)O)cc21 [Compound 20 (trans), Trans-11-(3-dimethylaminopropylidene)-6,11-dihydrodibenz[b,e]oxepin-2-acetic acid] |  |  | 0% |  |  |  |  | > 100 mg/kg | > 300 mg/kg |  |  |  | 0/3 | 3/3 | 3/3 | 2/3 | 2/3 | 0.1 mg/kg |
| O=C(O)c1ccc2c(c1)C(=CCCN1CCSCC1)c1ccccc1CO2 [Compound 58, 11-(3-Thiomorpholinopropylidene)-6,11-dihydrodibenz[b,e]oxepin-2-carboxylicacid] |  | 1 mg/kg |  |  | 0% | 100% | 100% | > 100 mg/kg | > 300 mg/kg | 100% |  |  |  |  |  |  |  |  |
